Measurements taken from US20240105277A1, “DRUG DISCOVERY VIA REI[…] WITH THREE-D[…]” (priority 2022, published 2024).
Several values for one entry are separate records, joined by “and”; a condition that tells them apart may be missing. Equal entries are not always repeated. Where two headings read alike, the source gives them in different places.

Columns and labels:
[1] = target: T1, SARS-CoV-2 M^pro (Severe acute respiratory syndrome coronavirus 2, UniProt P0DTD1); conditions: for fold decrease in IC50, initial vs final inhibition value: t=2 minutes vs 2-hour preincubation
Protocol: To validate the computational leads, the remaining compounds were subjected to a primary SARS-CoV-2 M^pro activity inhibition screen in which they were pre-incubated with the enzyme and the initial velocities of cleavage of a FRET peptide were determined. The Z′-factor of the assay was 0.65, and the distribution of z-scores of compounds and positive (no inhibitor) and negative (no enzyme) controls is shown in FIG. 20.
For each compound, IC50 curves were generated using a continuous fluorescence assay. Reaction volumes of 40 μL were used in Corning half area 96-well plates. […] All the reactions were done in triplicate. For IC50 determination, the initial rate data was used, and the kinetic values were obtained directly from nonlinear regression of substrate-velocity curves in the presence of various concentrations of the inhibitor. The equation Y=(Top-Bottom)/(1+1{circumflex over (0)}(X-log IC50))+Bottom; X=log(concentration) and Y=binding; was used in the nonlinear regression.
(§1) Similar fluorescence assay was used to determine the time dependent IC50 curves. The plate with 10 μL of enzyme (1 μM) and 10 μL of the appropriate inhibitor dilution in 20 mM Tris-HCl, pH 7.35 with 1.25% DMSO was incubated at room temperature on a titer plate shaker with varying enzyme pre-incubation times (2, 15, 30, 45, 60 and 120 min) and centrifuged briefly at 1000 g just before incubation time ends. […] The equation Y=(Top-Bottom)/(1+1{circumflex over (0)}(X-log IC50))+Bottom; X=log(concentration) and Y=binding; was used in the nonlinear regression.

[2] = target: T1, SARS-CoV-2 M^pro; conditions: for Ki / kinact (10^−3 s^−1): saturation profile, with SEM
Protocol: as §1

[3] = test system: Vero E6 (CRL-1586) cells; assay: Cytotoxicity and cytopathic effect assay; format: cell-based; conditions: concentrations up to 10 μM, with or without PZ
Protocol: The in vitro antiviral activity of all four hits was evaluated in Vero E6 (CRL-1586) cells. The antiviral properties of the inhibitors were assessed in the absence and presence of an efflux pump inhibitor (CP-100356, labeled PZ). […] Because of high cytotoxic effects of these compounds at high doses, the high doses were removed in the EC50 curve fit for these compounds.
Briefly, on the day of infection, 5×10^3 Vero E6 cells were seeded in 20 μL cell culture medium (containing 5% FBS) in 384-well plates, using a MultiFlo FX multi-mode microplate dispenser (BioTek). The same day, compounds were added to the cells (25 μL/well, in EMEM with 5% FBS, 1% P/S), with 2 wells per concentration. After 2 h of compound preincubation, 5 μL of virus was added to the wells using a multi-channel pipette to MOI=0.1. Viruses were diluted in EMEM with 5% FBS, 1% P/S and was kept on ice until cells were ready for infection. Eight virus-only control wells were included as the […]. The virus plus cells and the cells were used to normalize the data set. After 72 h, 30 μL of CellTiter-Glo (Promega) was dispensed into each well by a MultiFlo FX multi-mode microplate dispenser. After a 10 min incubation at room temperature, the plates were loaded into a Perkin EnVision multi-mode microplate reader to read luminescence.

[4] = read-out: IC50 (μM) - 2 min, 2 min co-incubation of enzyme and inhibitor, with standard deviation
[5] = read-out: IC50 (μM) - 120 min, 120 min pre-incubation, with standard deviation

Row | SMILES | IC50 fold lower than the IC50s of the other compounds ([1]; preliminary analysis, 2 min) | IC50 [1, 4] | IC50 ([1]; read-out: IC50 after a 2-hour preincubation, 2-hour preincubation) [µM] | fold decrease in IC50, initial vs final inhibition value [1] [fold] | kinact/KI fold higher relative to the other compounds [2] | kinact/KI (M^−1 s^−1) ([2]; inactivation efficiency) | Ki [2] | kinact (10^−3 s^−1) [2] | IC50 [1, 5] [µM] | kinact/KI ([2]; inactivation efficiency) [M⁻¹ s⁻¹] | cytotoxic effect [3]
1 | COc1ccc(C2CC(c3ccccc3)=NN2C(=O)CCl)cc1OC (centres unmarked) [Compound C] | at least 5 fold | 2.39 µM and 2.4 µM | 0.16 | 15 | at least 4 fold | 4,460 M^−1 s^−1 | 5.27 µM and 5.3 µM | 23.5 ± 2.6 10^−3 s^−1 |  |  | 
2 | O=C(CCl)N1CCN(Cc2cccc(Cl)c2)CC1 [Compound B] |  | 12.8 ± 5.1 µM |  | 32 |  |  | 5.97 µM and 6 µM | 4.2 ± 0.8 10^−3 s^−1 | 0.4 ± 0.13 | 697 ± 697 | 
3 | O=C(CCl)N1CCN(Cc2cccc3ccccc23)CC1 [Compound A] |  | 16.3 ± 1.3 µM |  | 54 |  |  | 11.5 µM | 5.1 ± 0.5 10^−3 s^−1 | 0.3 ± 0.03 | 441 ± 297 | less than other compounds
4 | CC(C)CC1CN(C(=O)CCl)CCN1Cc1cccc(Cl)c1 (centres unmarked) [D] |  | 16 ± 0.9 µM |  | 39 |  |  | ≥ 62.5 µM | ≥16.6 10^−3 s^−1 | 0.41 ± 0.06 |  | 
